Assay results: patent US9995734B2, “Human T cell line assay for evaluating the immunologic identity of glatiramer acetate preparations” (Mylan Inc., priority 2013, dated 2018)

Tested on: Donor 4 COP T-Cell Lines
Test: ATP proliferation assay (CellTiter Glo), Donor 4 COP T-cell lines, incl. reactivity to non-canonical GA peptides
Assay type: cell-based, human
Details: for Non-Canonical Peptide Non-Reactivity: proliferation <2 times no antigen control; for Proliferation (luminescent ATP assay), Mean: T-cell line 205-1F4, autologous B-LCL

poly (Glu-Tyr; 1:1) [GT 11]
Non-Canonical Peptide Non-Reactivity (205-1H11): GT 11

poly (Lys-Tyr; 1:1) [LT 11]
reactivity to non-canonical GA peptides (205-1F4 (sentence prints 165-1F4), Day 71, 0, 1, 3, 10 μg/mL): showed reactivity | reactivity to non-canonical GA peptide (205-1F4 (sentence prints 165-1F4), Day 80, 1, 2, 5, 10 μg/mL): showed reactivity | response relative to the no antigen control (205-1F4, Day 71, dose of 10 μg/mL antigen (text: Table 60)): 76.5 fold | response relative to the no antigen control (205-1F4, Day 80, dose of 10 μg/mL antigen (Table 58)): 17.3 fold | Non-Canonical Peptide Reactivity (205-1F4, at least one proliferation value >=2 times no antigen control): LT 11 | response relative to the no antigen control (205-1F4, text Day 80, dose of 10 μg/mL antigen (text: Table 59)): 10.4 fold | Non-Canonical Peptide Non-Reactivity (205-1H3): LT 11 | Non-Canonical Peptide Non-Reactivity (205-1H11): LT 11 | Reactive T-Cell Line (Donor 4 COP lines, at least a 50% increase in proliferation relative to a control after stimulation with the non-canonical GA peptide): 205-1F4 (Donor 4) | Nonreactive T-Cell Line (Donor 4 COP lines, stimulation with the non-canonical GA peptide): 205-1H3 (Donor 4) | Proliferation (luminescent ATP assay), Mean (Day 71, 1 μg/mL antigen): 73850 | Proliferation (luminescent ATP assay), Mean (Day 71, 3 μg/mL antigen): 154321 | Proliferation (luminescent ATP assay), Mean (Day 71, 10 μg/mL antigen): 158776 | Proliferation (luminescent ATP assay), Mean (Day 80, 1 μg/mL antigen): 3,675 | Proliferation (luminescent ATP assay), Mean (Day 80, 2 μg/mL antigen): 4,589 | Proliferation (luminescent ATP assay), Mean (Day 80, 5 μg/mL antigen): 7,626 | Proliferation (luminescent ATP assay), Mean (Day 80, 10 μg/mL antigen): 8,853 | Reactivity (proliferation), Mean (T-cell line 205-1H3, 1 μg/mL antigen, 0 μg/mL 4121.0): 4780.3 | Reactivity (proliferation), Mean (T-cell line 205-1H3, 3 μg/mL antigen, 0 μg/mL 4121.0): 3083.3 | Reactivity (proliferation), Mean (T-cell line 205-1H3, 10 μg/mL antigen, 0 μg/mL 4121.0): 3381.0 | Reactivity (proliferation), Mean (T-cell line 205-1H11, 1 μg/mL antigen, 0 μg/mL 6941): 5961 RLU | Reactivity (proliferation), Mean (T-cell line 205-1H11, 10 μg/mL antigen, 0 μg/mL 6941): 6698 RLU | Reactivity (proliferation), Mean (T-cell line 205-1H11, 30 μg/mL antigen, 0 μg/mL 6941): 4303 RLU
